Measurements published in patent US5262521A (SRI International, priority 1991, dated 1993).
Where a SMILES comes first, the peptide text is derived from it. Where no end group is shown, it is not given here. The star is where a group is joined. Boc = CC(C)(C)OC(=O)*

Test system: atrial peptide-degrading enzyme (ADE)
Assay: Degradation of peptide substrates by atrial peptide-degrading enzyme preparation (HPLC)
Format: biochemical, bovine
Settings: 50 μM substrate, 37° C.

% Degraded (small peptides) (one or two hours) [%] | Compound | % Degraded 1 h [%] | % Degraded 2 h (2 h) [%]
0 | COC(=O)[C@H](Cc1ccccc1)NC(=O)[C@H](CO)NC(=O)[C@H](CC(N)=O)NC(=O)OC(C)(C)C [Boc--Asn--Ser--Phe--OCH3] (Boc-Asn-Ser-Phe-OMe) | – | –
– | CC(C)C[C@H](NC(=O)CNC(=O)[C@H](Cc1ccc(O)cc1)NC(=O)[C@H](CO)NC(=O)[C@H](Cc1c[nH]c2ccccc12)NC(=O)[C@H](Cc1c[nH]cn1)NC(=O)[C@@H]1CCC(=O)N1)C(=O)N[C@@H](CCCNC(=N)N)C(=O)N1CCC[C@H]1C(=O)NCC(N)=O [LHRH, pGlu--His--Trp--Ser--Tyr--Gly--Leu--Arg--Pro--Gly-NH2] | 0 | –
– | ANF: atrial natriuretic factor, carboxy terminal 28 amino acid fragment of α-ANF | > 95 | –
– | API: rat atriopeptin I, atrial peptide prepared by solid phase synthesis (SSCFGGRIDRIGAQSGLGCNS; ends and bridges not checked; cysteine pairing not given here; UniProt P01161 127-147, looked up) | 0 | 0
